The molecules below were run against T1, NLRP3 inflammasome (Homo sapiens, UniProt Q96P20) (assay: ASC-SPECK formation in THP-1 cells after gramicidin stimulation (NLRP3 inflammasome activation)). Settings: PMA-treated human monocytic THP-1 cells, compound added 1 h before 12.5 ug/ml gramicidin, 3-hour treatment, ASC SPECK imaging; read-out: EC50 (nM), inhibition of NLRP3 inflammasome activation.
T1 construct: host or cells: THP-1 human monocytic cells, PMA-differentiated, gramicidin-stimulated
T1 sequence (Q96P20 whole entry): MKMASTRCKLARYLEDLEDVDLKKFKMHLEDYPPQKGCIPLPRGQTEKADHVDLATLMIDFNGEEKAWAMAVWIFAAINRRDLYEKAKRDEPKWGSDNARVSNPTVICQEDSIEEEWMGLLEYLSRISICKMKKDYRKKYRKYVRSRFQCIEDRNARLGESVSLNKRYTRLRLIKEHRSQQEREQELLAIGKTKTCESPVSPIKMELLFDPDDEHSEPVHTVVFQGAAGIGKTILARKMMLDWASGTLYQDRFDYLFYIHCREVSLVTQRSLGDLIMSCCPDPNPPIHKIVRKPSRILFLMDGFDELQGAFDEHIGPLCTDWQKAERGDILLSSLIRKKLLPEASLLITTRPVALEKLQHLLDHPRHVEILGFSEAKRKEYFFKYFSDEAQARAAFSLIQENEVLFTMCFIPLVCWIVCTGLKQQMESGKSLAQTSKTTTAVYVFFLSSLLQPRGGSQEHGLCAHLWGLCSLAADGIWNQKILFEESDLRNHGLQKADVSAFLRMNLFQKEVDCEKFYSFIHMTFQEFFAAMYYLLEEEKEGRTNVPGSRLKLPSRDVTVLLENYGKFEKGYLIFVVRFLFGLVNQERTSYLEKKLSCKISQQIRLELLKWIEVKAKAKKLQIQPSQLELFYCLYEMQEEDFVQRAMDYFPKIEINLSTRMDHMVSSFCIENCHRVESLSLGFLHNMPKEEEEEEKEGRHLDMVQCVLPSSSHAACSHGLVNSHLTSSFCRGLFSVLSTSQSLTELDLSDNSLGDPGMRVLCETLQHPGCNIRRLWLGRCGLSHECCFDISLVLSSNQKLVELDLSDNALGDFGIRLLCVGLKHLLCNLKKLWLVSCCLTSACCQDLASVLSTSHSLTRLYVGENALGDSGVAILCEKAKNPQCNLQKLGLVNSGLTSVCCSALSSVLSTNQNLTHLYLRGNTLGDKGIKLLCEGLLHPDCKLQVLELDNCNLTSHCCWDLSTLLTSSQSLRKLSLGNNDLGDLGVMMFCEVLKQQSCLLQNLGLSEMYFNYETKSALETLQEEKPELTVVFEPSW
Format: cell-based
Experimental: The ability of compounds to inhibit NLRP3 inflammasome activation was determined in vitro by monitoring formation of the ASC-SPECK in human monocytic THP-1 cells after stimulation. THP-1 cells (ATCC catalog #TIB-202) were maintained in complete growth media containing Roswell Park Memorial Institute RPMI (ATCC catalog #30-2001), 10% heat inactivated fetal bovine serum, 1× penicillin/streptomycin and 0.05 mM 2-mercaptoethanol. At the start of the assay, undifferentiated THP-1 cells were plated at a density of 20,000 cells per well in a 384-well plate (Poly-D-lysine coated Cell Carrier Ultra microplate, Perkin Elmer catalog #6057500) in complete growth media supplemented with 10 ng/ml phorbol 12-myristate 13-acetate (PMA; Sigma catalog #P8139), and then incubated overnight. The next day, media was replaced with assay media [RPMI (Gibco catalog #11875-093), 0.01% bovine serum albumin (BSA)]. Compounds were serially diluted in DMSO and then added to wells one hour prior to the addition of 12.5 ug/ml Gramicidin (Enzo Lifescience, catalog #ALX-350-233-M005). All incubations were carried out at 37° C. (5% C02/95% air). Following a 3-hour treatment with gramicidin, cells are fixed with 4% paraformaldehyde and stored at 4° C. until immunofluorescence staining.
Immunofluorescence staining: Anti-ASC antibody (MBL catalog #D086-3) was desalted and labeled with Alexa 488 antibody labeling kit (Thermo catalog #A20181) prior to use as described below. After fixation, the following steps were carried out at room temperature. Cells were first permeabilized with 0.3% Triton X-100 in phosphate-buffered saline (PBS) for 15 minutes and then incubated in blocking buffer containing 5% goat serum, 0.3% tween-20 and 0.03% sodium azide in PBS for 1 hour. Cells were stained with a mixture of ASC-Alexa 488 antibody (diluted 1:200 in blocking buffer) and nuclear stain DRAQ5 (1:5000 in blocking buffer, Thermo catalog #62251) in blocking buffer for 1 hour. Following a wash with 0.3% Tween-20 in PBS, plates were imaged with an Opera Phenix High Content Screening System. The number of DRAQ5 positive cells containing ASC SPECKS were quantified in each well.
Data analysis: EC50 values were calculated by standard curve-fitting analysis using an internally developed program in TIBCO Spotfire software.
`Cc1cc(C(F)(F)F)cc(O)c1-c1cc2c(nn1)N(C1CC(C)(C)C1O)CCC2` (single isomer, unassigned) [Example 5, 2-(8-((1S,2R or 1R,2S)-2-hydroxy-3,3-dimethylcyclobutyl)-5,6,7,8-tetrahydropyrido[2,3-c]pyridazin-3-yl)-3-methyl-5-(trifluoromethyl)phenol] was tested, and the EC50 was 1430 nM. For `Cc1cc(C(F)(F)F)cc(O)c1-c1cc2c(nn1)N(C1CC(C)(C)C1O)CCC2` (single isomer, unassigned) [Example 6, 2-(8-((1R,2S or 1S,2R)-2-hydroxy-3,3-dimethylcyclobutyl)-5,6,7,8-tetrahydropyrido[2,3-c]pyridazin-3-yl)-3-methyl-5-(trifluoromethyl)phenol], the EC50 was 118 nM. With `Cc1cc(C(F)(F)F)cc(O)c1-c1cc2c(nn1)N([C@H]1C[C@@](C)(O)C1)CCC2` [Example 1, 2-(8-((1s,3s)-3-hydroxy-3-methylcyclobutyl)-5,6,7,8-tetrahydropyrido[2,3-c]pyridazin-3-yl)-3-methyl-5-(trifluoromethyl)phenol] the EC50 was 42 nM. Molecule `CCN1CCC[C@@H](N2CCCc3cc(-c4c(C)cc(C(F)(F)F)cc4O)nnc32)C1` [Example 2, (R)-2-(8-(1-ethylpiperidin-3-yl)-5,6,7,8-tetrahydropyrido[2,3-c]pyridazin-3-yl)-3-methyl-5-(trifluoromethyl)phenol] has an EC50 of 5 nM. In the case of `Cc1cc(C(F)(F)F)cc(O)c1-c1cc2c(nn1)N(C13CCCC(O)(C1)C3)CCC2` [Example 3, 5-(3-(2-hydroxy-6-methyl-4-(trifluoromethyl)phenyl)-6,7-dihydropyrido[2,3-c]pyridazin-8(5H)-yl)bicyclo[3.1.1]heptan-1-ol], the EC50 is reported as 125 nM. With `Cc1cc(C(F)(F)F)cc(O)c1-c1cc2c(nn1)N([C@@H]1CCCC[C@H]1O)CCC2` [Example 4, 2-(8-((1R,2R)-2-hydroxycyclohexyl)-5,6,7,8-tetrahydropyrido[2,3-c]pyridazin-3-yl)-3-methyl-5-(trifluoromethyl)phenol] the EC50 was 157 nM. `Cc1cc(C(F)(F)F)cc(O)c1-c1cc2c(nn1)N(C[C@@H]1C[C@H](F)CN1)CCC2` [Example 7, 2-(8-(((2S,4S)-4-fluoropyrrolidin-2-yl)methyl)-5,6,7,8-tetrahydropyrido[2,3-c]pyridazin-3-yl)-3-methyl-5-(trifluoromethyl)phenol] showed an EC50 of 240 nM. For `Cc1cc(C(F)(F)F)cc(O)c1-c1cc2c(nn1)N([C@H]1C[C@@](C)(O)C1)C[C@H](N)C2` [Example 8, 2-((R)-6-amino-8-((1s,3S)-3-hydroxy-3-methylcyclobutyl)-5,6,7,8-tetrahydropyrido[2,3-c]pyridazin-3-yl)-3-methyl-5-(trifluoromethyl)phenol], the EC50 was 285 nM. Work on `CCN1CCC[C@@H](N2CCCc3c2nnc(-c2ccc(C(F)(F)F)cc2O)c3C)C1` [Example 9, (R)-2-(8-(1-ethylpiperidin-3-yl)-4-methyl-5,6,7,8-tetrahydropyrido[2,3-c]pyridazin-3-yl)-5-(trifluoromethyl)phenol] yielded an EC50 of 48 nM. `CCN1CCC[C@@H](N2CCCc3c2nnc(-c2ccc(C(F)(F)F)cc2OC(F)F)c3C)C1` [Example 10, (R)-3-(2-(difluoromethoxy)-4-(trifluoromethyl)phenyl)-8-(1-ethylpiperidin-3-yl)-4-methyl-5,6,7,8-tetrahydropyrido[2,3-c]pyridazine] showed an EC50 of 380 nM. With `CCN1CCC[C@@H](N2CCCc3c2nnc(-c2ccc(C(F)(F)F)nc2OC(F)F)c3C)C1` [Example 11, (R)-3-(2-(difluoromethoxy)-6-(trifluoromethyl)pyridin-3-yl)-8-(1-ethylpiperidin-3-yl)-4-methyl-5,6,7,8-tetrahydropyrido[2,3-c]pyridazine] the EC50 was 1070 nM. `CCN1CCC[C@@H](N2CCCc3c2nnc(-c2ccc4occc4c2)c3C)C1` [Example 12, (R)-3-(benzofuran-5-yl)-8-(1-ethylpiperidin-3-yl)-4-methyl-5,6,7,8-tetrahydropyrido[2,3-c]pyridazine] showed an EC50 of 253 nM. For `Cc1cc(C(F)(F)F)cc(O)c1-c1cc2c(nn1)N(C[C@@H]1C[C@H](F)CN1C)CCC2` [Example 13, 2-(8-(((2S,4S)-4-fluoro-1-methylpyrrolidin-2-yl)methyl)-5,6,7,8-tetrahydropyrido[2,3-c]pyridazin-3-yl)-3-methyl-5-(trifluoromethyl)phenol], the EC50 was 629 nM. With `Cc1cc(C(F)(F)F)cc(O)c1-c1cc2c(nn1)N([C@H]1CN(C)CC[C@H]1O)CCC2` [Example 14, (3S,4R)-3-(3-(2-hydroxy-6-methyl-4-(trifluoromethyl)phenyl)-6,7-dihydropyrido[2,3-c]pyridazin-8(5H)-yl)-1-methylpiperidin-4-ol] the EC50 was 27 nM. Molecule `CCN1C[C@@H](F)C[C@H]1CN1CCCc2cc(-c3c(C)cc(C(F)(F)F)cc3O)nnc21` [Example 15, 2-(8-(((2S,4S)-1-ethyl-4-fluoropyrrolidin-2-yl)methyl)-5,6,7,8-tetrahydropyrido[2,3-c]pyridazin-3-yl)-3-methyl-5-(trifluoromethyl)phenol] has an EC50 of 692 nM. `CC(=O)N1C[C@H](F)C[C@H]1CN1CCCc2cc(-c3c(C)cc(C(F)(F)F)cc3O)nnc21` [Example 16, 1-((2S,4R)-4-fluoro-2-((3-(2-hydroxy-6-methyl-4-(trifluoromethyl)phenyl)-6,7-dihydropyrido[2,3-c]pyridazin-8(5H)-yl)methyl)pyrrolidin-1-yl)ethan-1-one] gave an EC50 of 317 nM. For `CC(=O)N1C[C@@H](F)C[C@H]1CN1CCCc2cc(-c3c(C)cc(C(F)(F)F)cc3O)nnc21` [Example 17, 1-((2S,4S)-4-fluoro-2-((3-(2-hydroxy-6-methyl-4-(trifluoromethyl)phenyl)-6,7-dihydropyrido[2,3-c]pyridazin-8(5H)-yl)methyl)pyrrolidin-1-yl)ethan-1-one], the EC50 was 597 nM. Molecule `CCC(=O)N1C[C@H](F)C[C@H]1CN1CCCc2cc(-c3c(C)cc(C(F)(F)F)cc3O)nnc21` [Example 18, 1-((2S,4R)-4-fluoro-2-((3-(2-hydroxy-6-methyl-4-(trifluoromethyl)phenyl)-6,7-dihydropyrido[2,3-c]pyridazin-8(5H)-yl)methyl)pyrrolidin-1-yl)propan-1-one] has an EC50 of 204 nM. `Cc1cc(C(F)(F)F)cc(O)c1-c1cc2c(nn1)N(C[C@@H]1C[C@@H](F)CN1C(=O)C1CC1)CCC2` [Example 19, cyclopropyl((2S,4R)-4-fluoro-2-((3-(2-hydroxy-6-methyl-4-(trifluoromethyl)phenyl)-6,7-dihydropyrido[2,3-c]pyridazin-8(5H)-yl)methyl)pyrrolidin-1-yl)methanone] was tested, and the EC50 was 431 nM. `Cc1cc(C(F)(F)F)cc(O)c1-c1cc2c(nn1)N(C[C@@H]1C[C@@H](F)CN1C(=O)C1CCC1)CCC2` [Example 20, cyclobutyl((2S,4R)-4-fluoro-2-((3-(2-hydroxy-6-methyl-4-(trifluoromethyl)phenyl)-6,7-dihydropyrido[2,3-c]pyridazin-8(5H)-yl)methyl)pyrrolidin-1-yl)methanone] showed an EC50 of 874 nM. Work on `Cc1cc(C(F)(F)F)cc(O)c1-c1cc2c(nn1)N(C[C@@H]1C[C@@H](F)CN1S(C)(=O)=O)CCC2` [Example 21, 2-(8-(((2S,4R)-4-fluoro-1-(methylsulfonyl)pyrrolidin-2-yl)methyl)-5,6,7,8-tetrahydropyrido[2,3-c]pyridazin-3-yl)-3-methyl-5-(trifluoromethyl)phenol] yielded an EC50 of 351 nM. `Cc1cc(C(F)(F)F)cc(O)c1-c1cc2c(nn1)N(C[C@@H]1C[C@H](F)CN1S(C)(=O)=O)CCC2` [Example 22, 2-(8-(((2S,4S)-4-fluoro-1-(methylsulfonyl)pyrrolidin-2-yl)methyl)-5,6,7,8-tetrahydropyrido[2,3-c]pyridazin-3-yl)-3-methyl-5-(trifluoromethyl)phenol] showed an EC50 of 784 nM.

Reference: patent US20260200916A1, “6,6 BICYCLIC HETEROCYLES USEFUL AS INHIBITORS OF NOD-LIKE RECEPTOR PROTEIN 3” (Merck Sharp & Dohme LLC, priority 2022, published 2026)
